The values that follow come from EP0061745A1, “Tetrahydroisoquinoline compounds, processes for preparation thereof and pharmaceutical composition containing them” (Tanabe Seiyaku Co., Ltd., priority 1981, dated 1982).

Assay [1] has as its system production of PG 12 in vascular tissues. Nature of the assay: Effect on production of PG I2 in vascular tissues (platelet lysate or aorta microsome). In kind it is biochemical. The settings on record: pig's blood platelet lysate or microsome obtained from pig's aorta.
In assay [2] the test system is spontaneously hypertensive rats (SHR). Nature of the assay: Blood-pressure lowering effect after oral administration to SHR. In kind it is in vivo. As to conditions: administered orally, dose of 50 mg/kg.
The subject of the next assay is SHR. Nature of the assay: Hypotensive activity after repeated administration (tolerance). In kind it is in vivo, rats. The settings on record: administered to SHR for 15 consecutive days.

As for `CCCCCCCCCC[C@H](CN(CC)C(=O)N1Cc2ccccc2C[C@H]1C(=O)O)C(=O)O` [(3S)-2-[N-((2R)-2-carboxy-n-dodecyl)-N-ethylcarbamoyl]-1,2,3,4-tetrahydroisoquinoline-3-carboxylic acid], in assay [1], the “increase in the formation of PG I2 as compared with a control group” value amounted to 62%.
In the case of `CCOC(=O)[C@H](CCc1ccccc1)CN(CC)C(=O)N1Cc2ccccc2C[C@H]1C(=O)O` [(3S)-2-[N-((2R)-2-ethoxycarbonyl-4-phenyl-n-butyl)-N-ethylcarbamoyl]-1,2,3,4-tetrahydroisoquinoline-3-carboxylic acid], in assay [2], the “decrease in the blood pressure” value is on record as “about 35 mmHg” and the “duration of blood-pressure lowering effect” value is “more than 6 hours”.
As for `CCCCCCCC[C@H](CN(CC)C(=O)N1Cc2ccccc2C[C@H]1C(=O)O)C(=O)OCC` [calcium (3S)-2-[N-((2R)-2-ethoxycarbonyl-n-decyl)-N-ethylcarbamoyl] - 1,2,3,4-tetrahydro-isoquinoline-3-carboxylate], the “potency of hypotensive activity during repeated administration” value in the assay with SHR was “almost the same potency of its hypotensive activity”. In assay [2], the “decrease in the blood pressure” value is “about 35 mmHg” and the “duration of blood-pressure lowering effect” value is “more than 6 hours”.
